Reference: PubChem BioAssay AID212 (DTP/NCI, 2004)
Where “and” joins values, the source holds several entries; their conditions need not be identical. Equal entries are not always repeated. Inconclusive results are not listed.

System: BDF1 mice, colon carcinoma 38 sc, T/C %
Assay: NCI In Vivo Anticancer Drug Screen. Data for tumor model Colon Carcinoma 38 (subcutaneous) in B6D2F1 (BDF1) mice
How it was run: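 Mice with transplanted tumors are treated with compound or vehicle. Survival or tumor size is then measured in both groups. The ratio of treated to control gives the reported figure.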

[1] = endpoint: median tumor weight (est.), dose: 12.5 mg/kg/injection, schedule: Q07DX002 (ip), vehicle: saline, higher = larger tumour
[2] = endpoint: median tumor weight (est.), dose: 25.0 mg/kg/injection, schedule: Q07DX002 (ip), vehicle: saline, higher = larger tumour
[3] = endpoint: median tumor weight (est.), dose: 50.0 mg/kg/injection, schedule: Q07DX002 (ip), vehicle: saline, higher = larger tumour

In the case of C[C@]12CCC(=O)C=C1CC[C@@H]1[C@@H]2C(=O)C[C@@]2(C)[C@H]1CC[C@]2(O)C(=O)CO, the T/C (endpoint: median tumor weight (est.), dose: 40.0 mg/kg/injection, schedule: Q07DX003 (ip), vehicle: Klucel (hydroxypropylcellulose) (HPC), higher = larger tumour) is reported as 74 % of control, the T/C (endpoint: median tumor weight (est.), dose: 50.0 mg/kg/injection, schedule: Q07DX002 (ip), vehicle: Klucel (hydroxypropylcellulose) (HPC), higher = larger tumour) is reported as 117 % of control and the T/C (endpoint: median tumor weight (est.), dose: 80.0 mg/kg/injection, schedule: Q07DX003 (ip), vehicle: Klucel (hydroxypropylcellulose) (HPC), higher = larger tumour) is reported as 88 % of control. The T/C (endpoint: median tumor weight (est.), dose: 100.0 mg/kg/injection, schedule: Q07DX002 (ip), vehicle: Klucel (hydroxypropylcellulose) (HPC), higher = larger tumour) was 69 % of control, the T/C (endpoint: median tumor weight (est.), dose: 160.0 mg/kg/injection, schedule: Q07DX003 (ip), vehicle: Klucel (hydroxypropylcellulose) (HPC), higher = larger tumour) was 66 % of control and the T/C (endpoint: median tumor weight (est.), dose: 200.0 mg/kg/injection, schedule: Q07DX002 (ip), vehicle: Klucel (hydroxypropylcellulose) (HPC), higher = larger tumour) was 45 % of control. For the same compound, the T/C (endpoint: median tumor weight (est.), dose: 320.0 mg/kg/injection, schedule: Q07DX003 (ip), vehicle: Klucel (hydroxypropylcellulose) (HPC), higher = larger tumour) was 74 % of control, the T/C (endpoint: median tumor weight (est.), dose: 400.0 mg/kg/injection, schedule: Q07DX002 (ip), vehicle: Klucel (hydroxypropylcellulose) (HPC), higher = larger tumour) was 53 % of control and the T/C (endpoint: median tumor weight (est.), dose: 640.0 mg/kg/injection, schedule: Q07DX003 (ip), vehicle: Klucel (hydroxypropylcellulose) (HPC), higher = larger tumour) was 47 % of control. For the same compound, the T/C (endpoint: median tumor weight (est.), dose: 800.0 mg/kg/injection, schedule: Q07DX002 (ip), vehicle: Klucel (hydroxypropylcellulose) (HPC), higher = larger tumour) was 66 % of control and the T/C (endpoint: median tumor weight (est.), dose: 1200.0 mg/kg/injection, schedule: Q07DX002 (ip), vehicle: Klucel (hydroxypropylcellulose) (HPC), higher = larger tumour) was 67 % of control.
For Nc1ccn([C@@H](C=O)O[C@@H](C=O)CO)c(=O)n1, the T/C [1] was 99 % of control, the T/C [2] was 71 % of control and the T/C [3] was 58 % of control. The T/C (endpoint: median tumor weight (est.), dose: 100.0 mg/kg/injection, schedule: Q07DX002 (ip), vehicle: saline, higher = larger tumour) was 86 % of control and the T/C (endpoint: median tumor weight (est.), dose: 200.0 mg/kg/injection, schedule: Q07DX002 (ip), vehicle: saline, higher = larger tumour) was 73 % of control.
COc1cc(NCc2ccc3nc(N)nc(N)c3c2C)cc(OC)c1OC was tested, and the T/C (endpoint: median survival time, dose: 5.2 mg/kg/injection, schedule: Q04HX021 (ip), vehicle: sodium bicarbonate, higher = longer survival) was 183 % of control, the T/C (endpoint: median survival time, dose: 5.9 mg/kg/injection, schedule: Q06HX014 (ip), vehicle: sodium bicarbonate, higher = longer survival) was 120 % of control and the T/C (endpoint: median survival time, dose: 8.4 mg/kg/injection, schedule: Q04HX021 (ip), vehicle: sodium bicarbonate, higher = longer survival) was 194 % of control. For the same compound, the T/C (endpoint: median survival time, dose: 8.8 mg/kg/injection, schedule: Q06HX012 (oral), vehicle: sodium bicarbonate, higher = longer survival) was 116 % of control, the T/C (endpoint: median survival time, dose: 8.8 mg/kg/injection, schedule: Q06HX014 (ip), vehicle: sodium bicarbonate, higher = longer survival) was 175 % of control and the T/C (endpoint: median survival time, dose: 20.0 mg/kg/injection, schedule: Q06HX012 (oral), vehicle: sodium bicarbonate, higher = longer survival) was 177 % of control. The T/C (endpoint: median survival time, dose: 67.0 mg/kg/injection, schedule: Q07DX002 (ip), vehicle: sodium bicarbonate, higher = longer survival) was 157 % of control, the T/C (endpoint: median tumor weight (est.), dose: 1.88 mg/kg/injection, schedule: Q07DX002 (ip), vehicle: sodium bicarbonate, higher = larger tumour) was 152 % of control and the T/C (endpoint: median tumor weight (est.), dose: 12.5 mg/kg/injection, schedule: Q07DX002 (ip), vehicle: water, higher = larger tumour) was 121 % of control. The T/C (endpoint: median tumor weight (est.), dose: 25.0 mg/kg/injection, schedule: Q07DX002 (ip), vehicle: water, higher = larger tumour) was 109 % of control, the T/C (endpoint: median tumor weight (est.), dose: 50.0 mg/kg/injection, schedule: Q07DX002 (ip), vehicle: water, higher = larger tumour) was 109 % of control and the T/C (endpoint: median tumor weight (est.), dose: 53.0 mg/kg/injection, schedule: Q07DX002 (ip), vehicle: water, higher = larger tumour) was 85 % of control. For the same compound, the T/C (endpoint: median tumor weight (est.), dose: 66.0 mg/kg/injection, schedule: Q07DX002 (ip), vehicle: water, higher = larger tumour) was 90 % of control, the T/C (endpoint: median tumor weight (est.), dose: 70.0 mg/kg/injection, schedule: Q07DX002 (ip), vehicle: water, higher = larger tumour) was 120 % of control and the T/C (endpoint: median tumor weight (est.), dose: 80.0 mg/kg/injection, schedule: Q07DX002 (ip), vehicle: water, higher = larger tumour) was 82 % of control. The T/C (endpoint: median tumor weight (est.), dose: 99.0 mg/kg/injection, schedule: Q07DX002 (ip), vehicle: water, higher = larger tumour) was 87 % of control, the T/C (endpoint: median tumor weight (est.), dose: 100.0 mg/kg/injection, schedule: Q07DX002 (ip), vehicle: water, higher = larger tumour) was 217 % of control and the T/C (endpoint: median tumor weight (est.), dose: 105.0 mg/kg/injection, schedule: Q07DX002 (ip), vehicle: water, higher = larger tumour) was 82 % of control. For the same compound, the T/C (endpoint: median tumor weight (est.), dose: 120.0 mg/kg/injection, schedule: Q07DX002 (ip), vehicle: sodium bicarbonate, higher = larger tumour) was 4 % of control and the T/C (endpoint: median tumor weight (est.), dose: 120.0 mg/kg/injection, schedule: Q07DX002 (ip), vehicle: water, higher = larger tumour) was 83 % of control.
For CCCCn1cnc2c(=S)nc[nH]c21, the T/C (endpoint: median tumor weight (est.), dose: 50.0 mg/kg/injection, schedule: Q07DX002 (ip), vehicle: saline with Tween-80, higher = larger tumour) was 87 % of control and 96 % of control and the T/C (endpoint: median tumor weight (est.), dose: 400.0 mg/kg/injection, schedule: Q07DX002 (ip), vehicle: saline with Tween-80, higher = larger tumour) was 17 % of control and 21 % of control.
With c1cc(-c2cc3ccc(C4=NCCN4)cc3[nH]2)ccc1C1=NCCN1 the T/C (endpoint: median tumor weight (est.), dose: 6.25 mg/kg/injection, schedule: Q07DX002 (ip), vehicle: saline, higher = larger tumour) was 84 % of control, the T/C (endpoint: median tumor weight (est.), dose: 6.25 mg/kg/injection, schedule: Q07DX002 (ip), vehicle: suspension in saline, higher = larger tumour) was 90 % of control and the T/C [1] was 92 % of control. For the same compound, the T/C (endpoint: median tumor weight (est.), dose: 12.5 mg/kg/injection, schedule: Q07DX002 (ip), vehicle: suspension in saline, higher = larger tumour) was 87 % of control, the T/C [2] was 100 % of control and the T/C (endpoint: median tumor weight (est.), dose: 25.0 mg/kg/injection, schedule: Q07DX002 (ip), vehicle: suspension in saline, higher = larger tumour) was 105 % of control. The T/C [3] was 84 % of control and the T/C (endpoint: median tumor weight (est.), dose: 50.0 mg/kg/injection, schedule: Q07DX002 (ip), vehicle: suspension in saline, higher = larger tumour) was 98 % of control.
